The values that follow come from patent US8399482B2, “6-substituted isoquinolines and isoquinolinones” (Sanofi, priority 2008, dated 2013).

In assay [1] the target is T1, human recombinant ROCK II (Homo sapiens, UniProt O75116).
T1 construct: recombinant human ROCK-II residues 11-552; His6 (N); purchased Millipore GmbH, Schwalbach, Germany
The assay is described as follows: Determination of Rho kinase inhibition (ROCK II, Caliper peptide phosphorylation assay). Conditions: respective form (salt or free base) as obtained in the examples, 60 min at 32° C. In kind it is biochemical. A digest of the protocol: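 Enzyme: active N-terminal His6-tagged recombinant human ROCK-II, residues 11-552. Substrate: a fluorescein-labelled peptide, with ATP. IC50 values were determined.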

The target in the next assay is T2, recombinant human PKA (Homo sapiens, UniProt P17612).
T2 construct: recombinant human PKA (residues 1-351, N-terminal His-tag); His-tag (N); purchased Invitrogen, Karlsruhe, Germany
Nature of the assay: Determination of Protein Kinase A inhibition (selectivity). To be noted: from IC50 values. It counts as biochemical. A digest of the protocol: (§1)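 Full-length His-tagged PKG1-beta and His-tagged PKA (residues 1-351) assayed in Tris-HCl pH 7.4 with fluorescein-labelled peptide and ATP (diluted to 3 μM and 120 μM before mixing), 60 min at 32° C. EDTA-stopped; substrate phosphorylation detected by Caliper mobility-shift separation, giving IC50 values.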

The target of assay [2] is T3, recombinant human PKG1-beta (Homo sapiens, UniProt Q13976).
T3 construct: PKG1-beta (full-length, with N-terminal His-tag); His-tag (N); purchased Millipore GmbH, Schwalbach, Germany
T3 sequence (Q13976 1-686 isoform Q13976-2): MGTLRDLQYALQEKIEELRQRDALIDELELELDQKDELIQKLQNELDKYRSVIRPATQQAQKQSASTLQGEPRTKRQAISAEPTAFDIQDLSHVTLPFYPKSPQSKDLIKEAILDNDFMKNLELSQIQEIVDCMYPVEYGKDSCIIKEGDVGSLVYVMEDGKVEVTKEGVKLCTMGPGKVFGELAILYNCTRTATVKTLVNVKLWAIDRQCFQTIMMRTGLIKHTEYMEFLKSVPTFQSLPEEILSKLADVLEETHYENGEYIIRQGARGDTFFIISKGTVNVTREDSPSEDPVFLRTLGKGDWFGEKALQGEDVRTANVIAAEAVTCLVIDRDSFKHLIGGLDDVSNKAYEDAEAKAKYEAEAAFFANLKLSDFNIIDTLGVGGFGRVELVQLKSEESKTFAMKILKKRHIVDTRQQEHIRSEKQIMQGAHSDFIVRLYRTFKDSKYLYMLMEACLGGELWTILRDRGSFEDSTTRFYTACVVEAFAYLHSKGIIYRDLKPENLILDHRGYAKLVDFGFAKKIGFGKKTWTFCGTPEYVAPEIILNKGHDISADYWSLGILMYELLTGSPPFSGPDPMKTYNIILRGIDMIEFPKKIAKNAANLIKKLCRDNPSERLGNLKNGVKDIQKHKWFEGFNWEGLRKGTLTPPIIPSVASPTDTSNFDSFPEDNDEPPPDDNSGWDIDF
Nature of the assay: Determination of Protein Kinase G inhibition (selectivity). Conditions: from IC50 values. It counts as biochemical. A digest of the protocol:
as §1

Another assay relates to Protein Kinase G. Conditions: Rho kinase inhibitor, background statement; cited from earlier work.

SMILES strings stand for the structures. A value given as a limit tells only on which side of the number the result lay.

T1 sequence (O75116 11-552): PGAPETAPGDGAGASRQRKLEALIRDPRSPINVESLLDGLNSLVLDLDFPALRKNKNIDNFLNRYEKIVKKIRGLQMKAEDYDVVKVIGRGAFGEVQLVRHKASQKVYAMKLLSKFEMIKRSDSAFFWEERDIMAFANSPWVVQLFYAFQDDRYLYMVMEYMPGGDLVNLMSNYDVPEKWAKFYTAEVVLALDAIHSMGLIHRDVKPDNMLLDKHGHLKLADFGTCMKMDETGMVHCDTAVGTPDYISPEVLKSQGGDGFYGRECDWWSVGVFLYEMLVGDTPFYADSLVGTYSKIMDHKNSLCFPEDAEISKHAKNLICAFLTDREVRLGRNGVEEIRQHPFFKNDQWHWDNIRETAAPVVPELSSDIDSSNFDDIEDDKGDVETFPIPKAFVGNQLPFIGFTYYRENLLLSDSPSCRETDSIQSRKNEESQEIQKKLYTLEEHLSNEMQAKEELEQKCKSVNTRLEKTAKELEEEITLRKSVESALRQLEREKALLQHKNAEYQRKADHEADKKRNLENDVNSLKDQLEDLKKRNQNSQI

In general, IC50 refers to the point on the concentration scale where inhibition reaches its midpoint. Turning to `CC(C)CC(N)[C@]1(CC2CC2)CC[C@H](Oc2cc3cc[nH]c(=O)c3cc2Cl)CC1` (stereo partly drawn) [Example 64, cis-6-[4-(1-Amino-3-methyl-butyl)-4-cyclopropyl-methyl-cyclohexyloxy]-7-chloro-2H-isoquinolin-1-one], the IC50 in assay [1] was not above 10 nM. Further, the “Selectivity against PKA” value at recombinant human PKA is more than 1000 fold. Further, the “Selectivity against PKG” value in assay [2] is reported as more than 300 fold.

Consider `CCC(N)[C@]1(C2CCCCC2)CC[C@H](Oc2cc3cc[nH]c(=O)c3cc2Cl)CC1` (stereo partly shown) [Example 65], for which, in assay [1], the IC50 is 10 to 100 nM. Further, on recombinant human PKA, the “Selectivity against PKA” value is listed as more than 300 fold. Besides, the “Selectivity against PKG” value in assay [2] is recorded as more than 100 fold.

Regarding `NC(C1CC1)[C@]1(CC2CCOCC2)CC[C@H](Oc2cc3cc[nH]c(=O)c3cc2Cl)CC1` (stereo partly drawn) [Example 68, cis-6-[4-(Amino-cyclopropyl-methyl)-4-(tetrahydro-pyran-4-ylmethyl)-cyclohexyloxy]-7-chloro-2H-isoquinolin-1-one], the IC50 in assay [1] was not above 10 nM. Moreover, the “Selectivity against PKA” value on recombinant human PKA is more than 1000 fold. Further, the “Selectivity against PKG” value in assay [2] is on record as more than 300 fold.

Turning to `C[C@]1(C(N)C2CC2)CC[C@@H](Oc2cc3cc[nH]c(=O)c3cc2Cl)CC1` (stereo partly drawn) [Example 69, cis-6-[4-(Amino-cyclopropyl-methyl)-4-methyl-cyclohexyloxy]-7-chloro-2H-isoquinolin-1-one], the half-maximal inhibitory concentration (IC50) in assay [1] was not above 10 nM. Moreover, the “Selectivity against PKA” value at recombinant human PKA is recorded as more than 1000 fold. In addition, in assay [2], the “Selectivity against PKG” value is reported as more than 300 fold.

For `CC[C@]1(C(N)C2CC2)CC[C@@H](Oc2cc3cc[nH]c(=O)c3cc2Cl)CC1` (stereo partly drawn) [Example 70, cis-6-[4-(Amino-cyclopropyl-methyl)-4-ethyl-cyclohexyloxy]-7-chloro-2H-isoquinolin-1-one], the IC50 in assay [1] is not above 10 nM. Moreover, the “Selectivity against PKA” value at recombinant human PKA is listed as more than 1000 fold. For the same compound, in assay [2], the “Selectivity against PKG” value was more than 1000 fold.

As to `CC(N)[C@]1(C2CC2)CC[C@H](Oc2cc3cc[nH]c(=O)c3cc2Cl)CC1` (stereo partly drawn) [Example 72, cis-6-[4-(1-Amino-ethyl)-4-cyclopropyl-cyclohexyloxy]-7-chloro-2H-isoquinolin-1-one], in assay [1], the 50% inhibitory concentration (IC50) is 10 to 100 nM. For the same compound, the “Selectivity against PKA” value on recombinant human PKA is given as more than 300 fold. Also, the “Selectivity against PKG” value in assay [2] was more than 100 fold.

Consider `NC(C1CC1)[C@]1(CCCC(F)(F)F)CC[C@H](Oc2cc3cc[nH]c(=O)c3cc2Cl)CC1` (stereo partly drawn) [Example 73, cis-6-[4-(Amino-cyclopropyl-methyl)-4-(4,4,4-trifluoro-butyl)-cyclohexyloxy]-7-chloro-2H-isoquinolin-1-one], for which the IC50 in assay [1] is not above 10 nM. Besides, the “Selectivity against PKA” value at recombinant human PKA was more than 1000 fold. Moreover, the “Selectivity against PKG” value in assay [2] is more than 300 fold.

In the case of `CCC(N)[C@]1(C2CC2)CC[C@H](Oc2cc3cc[nH]c(=O)c3cc2Cl)CC1` (stereo partly drawn) [Example 74, cis-6-[4-(1-Amino-propyl)-4-cyclopropyl-cyclohexyloxy]-7-chloro-2H-isoquinolin-1-one], the IC50 in assay [1] was not above 10 nM. In addition, the “Selectivity against PKA” value at recombinant human PKA is more than 1000 fold. In assay [2], the “Selectivity against PKG” value was more than 1000 fold.

In the case of `NC(C1CC1)[C@]1(C2CC2)CC[C@H](Oc2cc3cc[nH]c(=O)c3cc2Cl)CC1` (stereo partly drawn) [Example 75, cis-6-[4-(Amino-cyclopropyl-methyl)-4-cyclopropyl-cyclohexyloxy]-7-chloro-2H-isoquinolin-1-one], the concentration for half-maximal inhibition (IC50) in assay [1] is not above 10 nM. The “Selectivity against PKA” value on recombinant human PKA was more than 1000 fold. Moreover, the “Selectivity against PKG” value in assay [2] is recorded as more than 1000 fold.

Consider `CCC(N)[C@]1(C2CCSCC2)CC[C@H](Oc2cc3cc[nH]c(=O)c3cc2Cl)CC1` (stereo partly drawn) [Example 76, cis-6-[4-(1-Amino-propyl)-4-(tetrahydro-thiopyran-4-yl)-cyclohexyloxy]-7-chloro-2H-isoquinolin-1-one], for which, in assay [1], the IC50 was not above 10 nM. Further, the “Selectivity against PKA” value at recombinant human PKA was more than 1000 fold. For the same compound, the “Selectivity against PKG” value in assay [2] is more than 1000 fold.

Consider `CCC[C@]1(C(C)N)CC[C@@H](Oc2cc3cc[nH]c(=O)c3cc2Cl)CC1` (stereo partly drawn) [Example 77, cis-6-[4-(1-Amino-ethyl)-4-propyl-cyclohexyloxy]-7-chloro-2H-isoquinolin-1-one], for which the IC50 in assay [1] is not above 10 nM. In addition, at recombinant human PKA, the “Selectivity against PKA” value is given as more than 1000 fold. Also, in assay [2], the “Selectivity against PKG” value was more than 300 fold.

With `CC[C@]1(C(C)N)CC[C@@H](Oc2cc3cc[nH]c(=O)c3cc2F)CC1` (stereo partly drawn) [Example 78, cis-6-[4-(1-Amino-ethyl)-4-ethyl-cyclohexyloxy]-7-fluoro-2H-isoquinolin-1-one], in assay [1], the IC50 was 10 to 100 nM. Also, the “Selectivity against PKA” value at recombinant human PKA is reported as more than 300 fold. Besides, in assay [2], the “Selectivity against PKG” value is on record as more than 100 fold.

For the compound `CCC(N)[C@]1(C(C)C)CC[C@H](Oc2cc3c(F)c[nH]c(=O)c3cc2Cl)CC1` (stereo partly drawn) [Example 90, cis-6-[4-(1-Amino-propyl)-4-isopropyl-cyclohexyloxy]-7-chloro-4-fluoro-2H-isoquinolin-1-one], in assay [1], the half-maximal inhibitory concentration (IC50) was 10 to 100 nM. In addition, the “Selectivity against PKA” value at recombinant human PKA is given as more than 300 fold. Further, the “Selectivity against PKG” value in assay [2] is recorded as more than 100 fold.

With `CC[C@]1(C(N)CF)CC[C@@H](Oc2cc3cc[nH]c(=O)c3cc2Cl)CC1` (stereo partly drawn) [Example 95, cis-6-[4-(1-Amino-2-fluoro-ethyl)-4-ethyl-cyclohexyloxy]-7-chloro-2H-isoquinolin-1-one], in assay [1], the IC50 is not above 10 nM. Besides, the “Selectivity against PKA” value at recombinant human PKA was more than 1000 fold. The “Selectivity against PKG” value in assay [2] is recorded as more than 300 fold.

In the case of `CC[C@]1(C(N)CF)CC[C@H](Oc2cc3cc[nH]c(=O)c3cc2Cl)CC1` (stereo partly drawn) [Example 96, trans-6-[4-(1-Amino-2-fluoro-ethyl)-4-ethyl-cyclohexyloxy]-7-chloro-2H-isoquinolin-1-one], the IC50 in assay [1] is 10 to 100 nM. The “Selectivity against PKA” value at recombinant human PKA was more than 300 fold. In addition, the “Selectivity against PKG” value in assay [2] is more than 100 fold.

On to `CCC(N)[C@]1(C2CCS(=O)(=O)CC2)CC[C@H](Oc2cc3cc[nH]c(=O)c3cc2Cl)CC1` (stereo partly drawn) [Example 99, cis-6-[4-(1-amino-propyl)-4-(1,1-dioxo-tetrahydrothiopyran-4-yl)-cyclohexyloxy]-7-chloro-2H-isoquinolin-1-one], for which the IC50 in assay [1] was not above 10 nM. On recombinant human PKA, the “Selectivity against PKA” value is on record as more than 1000 fold. Moreover, the “Selectivity against PKG” value in assay [2] was more than 300 fold.

As to `C[C@@H](N)[C@H]1CC[C@H](C(=O)Nc2ccncc2)CC1` [Example Y-27632], the “selectivity against Protein Kinase G” value in the assay on Protein Kinase G is 20 fold.
